# Source: the supplement of paper PMC10307832
# Experiments:
# Assay in all cases: relative viability (nuclei count vs DMSO), 5 days (fraction); higher = more cells survive
# VE-821 + Palbociclib = compound: CS(=O)(=O)c1ccc(-c2cnc(N)c(C(=O)Nc3ccccc3)n2)cc1 [VE-821] + CC(=O)c1c(C)c2cnc(Nc3ccc(N4CCNCC4)cn3)nc2n(C2CCCC2)c1=O [Palbociclib] (partner 0.5 µM)
# Outline: (§1)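 Five library-drug doses in √10 steps were combined with a fixed anchor-drug dose, or a single drug was given alone, by pin tool to lung cancer cell lines in 1536-well plates the day after seeding. Nuclei were stained and counted after 5 days. Relative viability is the nuclei count in treated wells over that in vehicle wells, taken as the median of duplicate plates.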
# Vismodegib + Phenformin = compound: CS(=O)(=O)c1ccc(C(=O)Nc2ccc(Cl)c(-c3ccccn3)c2)c(Cl)c1 [Vismodegib] + N=C(N)NC(=N)NCCc1ccccc1 [Phenformin] (partner 250 µM)
# Outline: as §1
# Vismodegib + Olaparib = compound: CS(=O)(=O)c1ccc(C(=O)Nc2ccc(Cl)c(-c3ccccn3)c2)c(Cl)c1 [Vismodegib] + O=C(c1cc(Cc2n[nH]c(=O)c3ccccc23)ccc1F)N1CCN(C(=O)C2CC2)CC1 [Olaparib] (partner 8 µM)
# Outline: as §1
# Ruxolitinib + Phenformin = compound: N#CC[C@H](C1CCCC1)n1cc(-c2ncnc3[nH]ccc23)cn1 [Ruxolitinib] + N=C(N)NC(=N)NCCc1ccccc1 [Phenformin] (partner 250 µM)
# Outline: as §1
Cell Line,relative viability (VE-821 + Palbociclib; first compound 0.08 µM),relative viability (VE-821 + Palbociclib; first compound 0.253 µM),relative viability (VE-821 + Palbociclib; first compound 0.8 µM),relative viability (VE-821 + Palbociclib; first compound 2.53 µM),relative viability (VE-821 + Palbociclib; first compound 8 µM),relative viability (Vismodegib + Phenformin; first compound 0.08 µM),relative viability (Vismodegib + Phenformin; first compound 0.253 µM),relative viability (Vismodegib + Phenformin; first compound 0.8 µM),relative viability (Vismodegib + Phenformin; first compound 2.53 µM),relative viability (Vismodegib + Phenformin; first compound 8 µM),relative viability (Vismodegib + Olaparib; first compound 0.08 µM),relative viability (Vismodegib + Olaparib; first compound 0.253 µM),relative viability (Vismodegib + Olaparib; first compound 0.8 µM),relative viability (Vismodegib + Olaparib; first compound 2.53 µM),relative viability (Vismodegib + Olaparib; first compound 8 µM),relative viability (Ruxolitinib + Phenformin; first compound 0.253 µM),relative viability (Ruxolitinib + Phenformin; first compound 0.8 µM),relative viability (Ruxolitinib + Phenformin; first compound 2.53 µM),relative viability (Ruxolitinib + Phenformin; first compound 8 µM),relative viability (Ruxolitinib + Phenformin; first compound 0.08 µM)
ABC-1,0.651,0.788,0.601,0.695,0.633,0.231,0.253,0.241,0.24,0.235,0.76,0.788,0.725,1.01,1.09,0.282,0.316,0.287,0.294,
LOU-NH91,0.543,0.512,0.545,0.548,0.565,0.66,0.68,0.67,0.75,0.681,0.873,0.907,0.936,0.904,0.917,0.708,0.765,0.63,0.747,
NCI-H727,0.737,0.726,0.618,0.638,0.659,0.52,0.58,0.592,0.524,0.444,0.66,0.683,0.76,0.724,0.749,0.55,0.576,0.599,0.848,0.505
NCI-H2023,0.452,0.346,0.317,0.297,0.124,0.367,0.364,0.43,0.384,0.401,0.496,0.448,0.519,0.44,0.541,0.373,0.428,0.358,0.328,0.383
NCI-H1563,,,,,,0.622,0.623,0.676,0.721,0.626,,,,,,0.69,0.643,0.593,0.602,0.667
